Reference: patent US12569170B2, “Paramagnetic sodium NMR macrocyclic-based biosensors, and associated methods” (Yale University, priority 2021, dated 2026)
Several values for one entry are separate records, joined by “and”; a condition that tells them apart may be missing. Identical values can stand only once.

What was measured:
[1] = In vitro ^23Na-NMR, two-compartment coaxial cylinder tube (^23Na shiftability); assay type: physicochemical
From the text: The goal of these studies was to separate the total Na^+ signal (Na^+T) into distinct signals for blood (Na^+b), interstitial (Na^+e), and intracellular (Na^+i) pools (FIG. 1). The shifting mechanism induced by exogenous TmDOTP^5− and endogenous biological factors on the ^23Na chemical shift in vitro is depicted in FIGS. 1C-1G. A two-compartment coaxial cylinder NMR tube setup in vitro was used to mimic Na^+ in interstitial/intracellular pools. The inner (smaller) and outer (larger) compartments both contained 150 mM NaCl while the latter also contained TmDOTP^5− at various concentrations. The setup was subjected to several different pH and temperature conditions. The inner compartment, which lacked TmDOTP^5− to represent the intracellular space in vivo, produced a small but unshifted ^23Na peak at 0 ppm. The larger ^23Na peak was shifted downfield by TmDOTP^5−, with the difference in peak integrals stemming from different compartment volumes.
The ^23Na shiftability for TmDOTP^5− s[paraCA^n−]=[…] was 11.1×larger than the shiftability for pH (spH=0.25 ppm/pH unit) and 92.3×larger than the shiftability for temperature (sT=0.03 ppm/° C.). This means that addition of 1.1 mM TmDOTP^5− would induce a ˜3 ppm shift in the ^23Na peak. Conversely, a maximal change of 0.4 in pH units, which is observed between normal and tumor tissues, would induce only a ˜0.1 ppm ^23Na shift. A similar ^23Na shift by temperature would require a 3.3° C. change, which is unlikely in vivo. Based on the pH and temperature ranges observed in vivo (including tumors), the effect from [TmDOTP^5−] dominates the ^23Na chemical shift by 95%. Therefore, [TmDOTP^5−] is several orders of magnitude more sensitive in shifting the ^23Na resonance than typical in vivo factors. Furthermore, the ^23Na shiftability arising from [TmDOTP^5−] and pH/temperature effects is much larger than T2 broadening from TmDOTP^5− (FIG. 1C). […] (FIGS. 1D-1E). However, for in vivo scenarios the ranges shown for pH (2 full pH units) and temperature (15° C. interval) are overestimated, and where [Na^+] far exceeds [TmDOTP^5−] based on prior experiments. In blood and interstitial spaces, [Na^+] is ˜30-100×greater than [TmDOTP^5−].
In vitro experiments were performed using a 2-compartment coaxial cylindrical 7-inch NMR tube setup from WilmadLabGlass (Vineland, NJ, USA). One compartment contained 150 mM NaCl and the other contained the same but with varying amounts of TmDOTP^5− (1-10 mM) and 10% v/v ^2H2O to lock the spectrometer frequency using the ^2H2O signal. NaCl and ^2H2O were purchased from Sigma-Aldrich (St. Louis, MO, USA), and TmDOTP^5− was purchased as the sodium salt Na5TmDOTP from Macrocyclics (Plano, TX, USA). The 5-mm opening of the NMR tube permitted an insert (the inner compartment) whose 50-mm-long tip had inner and outer diameters of 1.258 and 2.020 mm, respectively. The outer-to-inner volume ratio between the two compartments was 8.6. The geometry of the setup allowed 645 μL total in the outer compartment to fill around the tip. Each solution was pH-adjusted using HCl or KOH to give 5 different pH values.
^23Na-NMR spectra were collected on a Bruker Avance III HD 500 MHz vertical-bore spectrometer (Bruker, Billerica, MA, USA) interfaced with Bruker TopSpin v2.1 software. A Bruker 500 MHz TBO liquid broadband probe with z-gradient was used in all frequencies, and an inner coil was used to detect X-nuclei. A single ^23Na square pulse (50 μs) was used to globally excite the volume of interest (repetition time TR=275 ms) collecting 2048 free induction decay (FID) points in the time domain with an acquisition time taq=38.9 ms, averaged 4096 times. Each set of scans was repeated at a series of temperatures: 27, 30, 34, 37, and 40° C. Spectra were analyzed using 10 Hz line broadening (for improved delineation of major peaks and reduction of baseline noise) and manual zeroth- and first-order phasing. […]

[2] = Effect of cation competition on ^23Na chemical shift and linewidth in vitro; assay type: physicochemical; conditions: for ^23Na chemical shift / ^23Na linewidth: 150 mM NaCl
Procedure: FIGS. 13A-13C depicts effect of cation competition on ^23Na chemical shift and linewidth induced by 2 mM TmDOTP^5−. (FIG. 13A)^23Na NMR spectra for 150 mM NaCl solutions containing 2 mM TmDOTP^5− alone, and in the presence of 2 mM Ca^2+, 2 mM Mg^2+, 10 mM K^+, and all three of these ions. Ca^2+, Mg^2+, and K^+ were introduced as the salts CaCl2, MgCl2, and KBr, respectively. These concentrations were all chosen to represent physiological concentrations in the interstitial space. […] Chemical shift ranged between 2.433 ppm (FIG. 13B, alone) and 2.352 ppm (FIG. 13B, all), representing only a 3% change in the presence of all competing cations. Linewidth ranged between 0.2433 ppm (FIG. 13C, alone) and 0.2285 ppm (FIG. 13C, all), representing only a 6% change in the presence of all competing cations.
Upon translation of the present in vitro results to in vivo situations, certain confounding factors must be addressed. In the interstitial space, there are additional cations such as calcium (Ca^2+), magnesium (Mg^2+) and K^+ which will also bind to anionic contrast agents like TmDOTP^5−. However, physiologically their concentrations are low compared to Na^+. […] Additionally, there is a contribution to the chemical shift from bulk magnetic susceptibility (BMS) changes brought about by TmDOTP^5− in addition to the hyperfine shifts induced by interactions with Na^+. Experiments were performed on different DOTP^8− salts in phantoms parallel and perpendicular to the main magnetic field B0, and also spherical phantoms in which there was no BMS contribution. Only a small portion (˜2%) of the total chemical shift for TmDOTP^5− was due to BMS arising due to anisotropy of the paramagnetic susceptibility, and the remainder was the hyperfine shift.

[3] = 2 mM TmDOTP^5− with 2 mM Ca^2+, 2 mM Mg^2+ and 10 mM K^+ (all)

O=P([O-])([O-])CN1CCN(CP(=O)([O-])[O-])CCN(CP(=O)([O-])[O-])CCN(CP(=O)([O-])[O-])CC1.[Na+].[Na+].[Na+].[Na+].[Na+].[Tm+3] [TmDOTP^5−, sodium thulium (III) 1,4,7,10-tetraazacyclododecane-1,4,7,10-tetrakis(methylenephosphonate)]
^23Na shifts caused by in vivo agent concentrations ([1]; 1-2 mM TmDOTP^5−): 2.8-5.5 ppm | shift in the ^23Na peak induced by addition of agent ([1]; addition of 1.1 mM TmDOTP^5−): ~3 ppm | ^23Na shiftability for pH (spH) ([1]; in vitro, 150 mM NaCl with TmDOTP^5−): 0.25 ppm/pH unit | ^23Na shiftability for temperature (sT) ([1]; in vitro, 150 mM NaCl with TmDOTP^5−, 27-40° C.): 0.03 ppm/° C. | ^23Na shift variation caused by pH ([1]; maximal change of 0.4 pH units between normal and tumor tissue): ~0.1 ppm | shiftability for TmDOTP^5− relative to shiftability for pH ([1]; ratio): 11.1 × | shiftability for TmDOTP^5− relative to shiftability for temperature ([1]; ratio): 92.3 × | ^23Na shift variation caused by temperature ([1]; temperature difference ~0.5° C.): 0.015 ppm | share of the ^23Na chemical shift dominated by [TmDOTP^5−] effect ([1]; versus pH and temperature ranges observed in vivo): 95% and 96-98% | change in ^23Na chemical shift in the presence of all competing cations ([2]; 2 mM TmDOTP^5−, alone vs all): 3% | change in ^23Na linewidth in the presence of all competing cations ([2]; 2 mM TmDOTP^5−, alone vs all): 6% | ^23Na chemical shift ([2]; 2 mM TmDOTP^5− alone): 2.433 ppm | ^23Na linewidth ([2]; 2 mM TmDOTP^5− alone): 0.2433 ppm | ^23Na chemical shift [2, 3]: 2.352 ppm | ^23Na linewidth [2, 3]: 0.2285 ppm | changes in ^23Na chemical shift and linewidth by cationic competition ([2]; typical in vivo concentrations of Ca^2+, Mg^2+, K^+): negligible changes
